According to US6645976B1 (Eli Lilly and Company, priority 1994, dated 2003):

Experiments:
[1] = molecular target: T1, recombinant human secreted phospholipase A2 (Homo sapiens, UniProt P14555); test: sPLA2 Chromogenic Assay (Assay 1); type: biochemical; details: diheptanoyl thio-PC substrate, pH 7.5, 40° C. for 30 minutes, absorbance at 405 nanometers
T1 sequence (P14555 21-144): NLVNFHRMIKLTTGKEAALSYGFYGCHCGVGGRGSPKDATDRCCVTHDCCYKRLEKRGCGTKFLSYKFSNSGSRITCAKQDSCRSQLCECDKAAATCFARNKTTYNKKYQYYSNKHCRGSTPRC

Structure (SMILES) | IC50 [1] [nM] | melting point
CCc1c(C(=O)C(N)=O)c2c(OCC(=O)OC)cccn2c1Cc1ccc2ccccc2c1 [Compound 51g, 2-(8-(Carbomethoxymethyloxy)-2-ethyl-3-(naphth-2-ylmethyl)indolizin-1-yl)glyoxylamide] | 170 | 195 to 196 °C
CCc1c(C(=O)C(N)=O)c2c(OCc3ccccc3)cccn2c1Cc1ccccc1 [Compound 35a, (3-Benzyl-8-benzyloxy-2-ethylindolizin-1-yl)glyoxylamide] | 400 | 188 to 189 °C
Cc1c(C(=O)C(N)=O)c2c(OCc3ccc4ccccc4n3)cccn2c1Cc1ccccc1-c1ccccc1 [Compound 59p, 2-(3-Biphenyl-2-ylmethyl-2-methyl-8-(quinolin-2-ylmethoxy)-indolizin-1-yl)-glyoxylamide] | 200 | 165 to 167 °C
CCCCc1ccc(Cc2c(CC)c(C(=O)C(N)=O)c3c(OCC(=O)OC)cccn23)cc1 [Compound 51s, 2-(3-(p-n-Butylbenzyl)-8-(carbomethoxymethyloxy)-2-ethylindolizin-1-yl)glyoxylamide] | 150 | 174 to 176 °C
CCc1c(C(=O)C(=O)N(C)C)c2c(OCC(=O)O)cccn2c1Cc1ccccc1-c1ccccc1 [Compound 40f, (8-(Carboxymethyloxy)-2-ethyl-3-(o-phenylbenzyl)indolizin-1-yl)glyoxyl-N,N-dimethylamide] | > 50000 | 208 to 209 °C
CCc1c(C(=O)C(N)=O)c2c(OCC(=O)OC)cccn2c1Cc1cccc(OC)c1 [Compound 51m, 2-(2-Ethyl-8-(carbomethoxymethyloxy)-3-(m-methoxybenzyl)indolizine-1-yl)glyoxylamide] | 310 | 155 to 157 °C
Cc1c(C(=O)C(N)=O)c2c(OCc3ccncc3)cccn2c1Cc1ccccc1-c1ccccc1 [Compound 59o, 2-(3-Biphenyl-2-ylmethyl-2-methyl-8-(pyridin-4-ylmethoxy)-indolizin-1-yl)-glyoxylamide] | 490 | 195 to 197 °C
CCCCc1ccc(Cc2c(CC)c(C(=O)C(N)=O)c3c(OC)cccn23)cc1 [Compound 49s, 2-(3-(p-n-Butylbenzyl)-2-ethyl-8-methoxyindolizin-1-yl)glyoxylamide] | 360 | 195 to 196 °C
NC(=O)C(=O)c1c(C2CCCC2)c(Cc2ccccc2-c2ccccc2)n2cccc(OCC(=O)O)c12 [Compound 58f, 2-(8-Carboxymethyloxy-2-cyclopentyl-3-(o-phenylbenzyl)indlolin-1-yl)glyoxylamide] | 280 | 147 to 148 °C
Cc1c(C(=O)C(N)=O)c2c(OCc3ccccn3)cccn2c1Cc1ccccc1-c1ccccc1 [Compound 59n, 2-(3-Biphenyl-2-ylmethyl-2-methyl-8-(pyridin-2-ylmethoxy)-indolizin-1-yl)-glyoxylamide] | 600 | 196 to 197 °C
CCc1c(C(=O)C(N)=O)c2c(OCC(=O)OC)cccn2c1CC1CCCCC1 [Compound 51b, 2-(8-(Carbomethoxymethyloxy)-3-cyclohexylmethyl-2-ethylindolizin-1-yl)glyoxylamide] | 310 | 149 to 150 °C
COC(=O)COc1cccn2c(CC3CCCCC3)c(C)c(C(=O)C(N)=O)c12 [Compound 51t] | 130 | 177 to 178 °C

The next lines start with the values.

IC50 [1] [nM] | melting point | Structure (SMILES)
130 | 159 to 162 °C | CCc1c(C(=O)C(N)=O)c2c(OCCC(=O)OC)cccn2c1Cc1ccccc1-c1ccccc1 [Compound 70c, 2-(3-(Biphenyl-2-yl-methyl)-8-(2-carbomethoxyethyloxy)-2-ethylindolizine-1-yl)glyoxylamide]
51 | 215 to 217 °C | CCc1c(C(=O)C(N)=O)c2c(OCC(=O)O)cccn2c1CCCc1ccccc1 [Compound 58i, 2-(8-Carboxymethyloxy-2-ethyl-3-(3-phenyl-2-propanyl)indlolin-1-yl)glyoxylamide]
23 | 205 to 207 °C | NC(=O)C(=O)c1c(C2CC2)c(Cc2cccc3ccccc23)n2cccc(OCC(=O)O)c12 [Compound 58j, 2-(8-carboxymethoxyl-2-cyclopropyl-3-(1-naphthylmethyl)indlolin-1-yl)glyoxylamide]
10 | 209 to 210 °C | CCc1c(C(=O)C(N)=O)c2c(OCC(=O)O)cccn2c1Cc1sccc1-c1cccs1 [Compound 52l, 2-(8-(Carboxymethyloxy)-2-ethyl-3-((3-thiophen-2-yl)thiophen-2-ylmethyl)indolizin-1-yl)glyoxylamide]
44 | 191 to 192 °C | CCOC(=O)COc1cccn2c(Cc3ccccc3)c(CC)c(C(=O)C(N)=O)c12 [Compound 37a, (3-Benzyl-8-(carbethoxymethyloxy)-2-ethylindolizin-1-yl)glyoxylamide]
43 | 229 to 234 °C | NC(=O)C(=O)c1c(C2CC2)c(CC2CCCCC2)n2cccc(OCC(=O)O)c12 [Compound 58k, 2-(8-carboxymethoxyl-3-cyclohexylmethyl-2-cyclopropylindolizin-1-yl)glyoxylamide]
20 | 190 to 191 °C | CCc1c(C(=O)C(N)=O)c2c(OCC(=O)OC)cccn2c1Cc1ccccc1Cc1ccccc1 [Compound 51j]
113 | 159 to 162 °C | CCc1c(C(=O)C(N)=O)c2c(OCC(=O)OCC(C)=O)cccn2c1Cc1ccccc1-c1ccccc1 [Compound 59k, 2-(3-(Biphenyl-2-yl-methyl)-2-ethyl-8-(2-oxopropyloxycarbonylmethoxy)indolizine-1-yl)glyoxylamide]
39 | 74 to 80 °C | CCc1c(C(=O)C(N)=O)c2c(OCC(=O)OC(C)OC(=O)OC3CCCC3)cccn2c1Cc1ccccc1-c1ccccc1 (stereo not drawn) [Compound 59g, 2-(3-Biphenyl-2-ylmethyl-8-(1-cyclopentyloxycarbonyloxyethyloxycarbonylmethyloxy)-2-ethylindolizin-1-yl)glyoxylamide]
38 | 222 to 224 °C | CCc1c(C(=O)C(N)=O)c2c(OCC(=O)O)cccn2c1CC=Cc1ccccc1 [Compound 58h, 2-(8-Carboxymethyloxy-2-ethyl-^3-(3-phenyl-2-propenyl)indlolin-1-yl)glyoxylamide]
96 | 176 to 177 °C | CCc1c(C(=O)C(N)=O)c2c(OCC(=O)OC)cccn2c1Cc1sccc1-c1cccs1 [Compound 51l, 2-(8-(Carbomethoxymethyloxy)-2-ethyl-3-((3-thiophen-2-yl)thiophen-2-ylmethyl)indolizin-1-yl)glyoxylamide]
100 | 221 to 222 °C | CC(C)(C)c1c(C(=O)C(N)=O)c2c(OCC(=O)O)cccn2c1Cc1ccccc1-c1ccccc1 [Compound 58e, 2-(2-t-Butyl-8-carboxymethoxyl-3-(o-phenylbenzyl)indlolin-1-yl)glyoxylamide]
7 | 206 to 209 °C (dec.) | CCc1c(C(=O)C(N)=O)c2c(OCc3nnn[nH]3)cccn2c1Cc1ccccc1-c1ccccc1 [Compound 59m, 2-(3-(Biphenyl-2-yl-methyl)-2-ethyl-8-(1H-tetracol-5-ylmethyloxy)indolizine-1-yl)glyoxylamide]
47 | 212 to 214 °C | Cc1c(C(=O)C(N)=O)c2c(OCc3ccccc3)cccn2c1Cc1ccccc1 [Compound 35g, (3-Benzyl-8-benzyloxy-2-methylindolizin-1-yl)glyoxylamide]
13 | 127 to 129 °C | CCOC(=O)COc1cccn2c(Cc3ccccc3-c3ccccc3)c(CC)c(C(=O)C(N)=O)c12 [Compound 37d, (8-(Carbethoxymethyloxy)-2-ethyl-3-(o-phenylbenzyl)indolizin-1-yl)glyoxylamide]
